Here are results for one compound from ChEMBL document CHEMBL4052632 (Eur J Med Chem, 2017).

SMILES strings stand for the structures. pIC50: −log10 of the molar value.

Data set [1] deals with Mitogen-activated protein kinase 8 (Homo sapiens) (UniProt P45983). Kind of data set: Inhibition of human JNK1alpa1 using at 100 uM after 90 mins in presence of ATP relative to control.
Another data set concerns A2780. Kind of data set: Antiproliferative activity against human A2780 cells measured after 48 hrs by MTT assay. Format: functional, cell-based. To be noted: A2780, 48 h.
For data set [2], the target named is Mitogen-activated protein kinase 12 (Homo sapiens) (UniProt P53778). Put plainly: Inhibition of full length recombinant human SAPK3 at 100 uM in presence of ATP relative to control.
In a further data set the test system is Saccharomyces cerevisiae. Kind of data set: Inhibition of yeast CK1 using poly (Glu, Tyr) 4:1 as substrate after 1 hr by ELISA relative to control. To be noted: concentration not given here.
The target of data set [3] is RAC-alpha serine/threonine-protein kinase (Homo sapiens) (UniProt P31749). Put plainly: Inhibition of recombinant human PKBalpha using CREBtide (CKRREILSRRPSYRK) as substrate at 100 uM after 60 mins in presence of ATP relative to control.
The test system of another data set is Mus musculus. Put plainly: Toxicity in nude BALB/c mouse xenografted with human A2780 cells assessed as body weight loss at 30 mg/kg, ip administered once every 2 days for 14 consecutive days relative to control. Format: organism-based. The conditions noted are these: in vivo, 48 h.
Data set [4] deals with Tyrosine-protein kinase receptor UFO (Homo sapiens) (UniProt P30530). Put plainly: Inhibition of AXL (unknown origin) using poly (Glu, Tyr) 4:1 as substrate at 100 uM after 1 hr by ELISA relative to control.
For another data set, the species on record is Homo sapiens. Kind of data set: Inhibition of human PKA at 100 uM in presence of ATP relative to control.
The target in data set [5] is Insulin-like growth factor 1 receptor (Homo sapiens) (UniProt P08069). Put plainly: Inhibition of IGF1R (unknown origin) using poly (Glu, Tyr) 4:1 as substrate at 100 uM after 1 hr by ELISA relative to control.
Data set [6] deals with Cyclin-dependent kinase 2/cyclin E1 (Homo sapiens) (UniProt P24864+P24941). Put plainly: Inhibition of recombinant human CDK2/CyclinE using Ulight-CFFKNIVTPRTPPPSQGK-amide as substrate at 100 uM after 30 mins in presence of ATP relative to control. The class given is protein-complex assay.
The target of data set [7] is Vascular endothelial growth factor receptor 1 (Homo sapiens) (UniProt P17948). Kind of data set: Inhibition of VEGFR-1 (unknown origin) using poly (Glu, Tyr) 4:1 as substrate at 100 uM after 1 hr by ELISA relative to control.
For data set [8], the target named is Platelet-derived growth factor receptor alpha (Homo sapiens) (UniProt P16234). Put plainly: Inhibition of PDGFRalpha (unknown origin) using poly (Glu, Tyr) 4:1 as substrate at 100 uM after 1 hr by ELISA relative to control.
Platelet-derived growth factor receptor alpha (Homo sapiens), sequence (P16234 whole entry): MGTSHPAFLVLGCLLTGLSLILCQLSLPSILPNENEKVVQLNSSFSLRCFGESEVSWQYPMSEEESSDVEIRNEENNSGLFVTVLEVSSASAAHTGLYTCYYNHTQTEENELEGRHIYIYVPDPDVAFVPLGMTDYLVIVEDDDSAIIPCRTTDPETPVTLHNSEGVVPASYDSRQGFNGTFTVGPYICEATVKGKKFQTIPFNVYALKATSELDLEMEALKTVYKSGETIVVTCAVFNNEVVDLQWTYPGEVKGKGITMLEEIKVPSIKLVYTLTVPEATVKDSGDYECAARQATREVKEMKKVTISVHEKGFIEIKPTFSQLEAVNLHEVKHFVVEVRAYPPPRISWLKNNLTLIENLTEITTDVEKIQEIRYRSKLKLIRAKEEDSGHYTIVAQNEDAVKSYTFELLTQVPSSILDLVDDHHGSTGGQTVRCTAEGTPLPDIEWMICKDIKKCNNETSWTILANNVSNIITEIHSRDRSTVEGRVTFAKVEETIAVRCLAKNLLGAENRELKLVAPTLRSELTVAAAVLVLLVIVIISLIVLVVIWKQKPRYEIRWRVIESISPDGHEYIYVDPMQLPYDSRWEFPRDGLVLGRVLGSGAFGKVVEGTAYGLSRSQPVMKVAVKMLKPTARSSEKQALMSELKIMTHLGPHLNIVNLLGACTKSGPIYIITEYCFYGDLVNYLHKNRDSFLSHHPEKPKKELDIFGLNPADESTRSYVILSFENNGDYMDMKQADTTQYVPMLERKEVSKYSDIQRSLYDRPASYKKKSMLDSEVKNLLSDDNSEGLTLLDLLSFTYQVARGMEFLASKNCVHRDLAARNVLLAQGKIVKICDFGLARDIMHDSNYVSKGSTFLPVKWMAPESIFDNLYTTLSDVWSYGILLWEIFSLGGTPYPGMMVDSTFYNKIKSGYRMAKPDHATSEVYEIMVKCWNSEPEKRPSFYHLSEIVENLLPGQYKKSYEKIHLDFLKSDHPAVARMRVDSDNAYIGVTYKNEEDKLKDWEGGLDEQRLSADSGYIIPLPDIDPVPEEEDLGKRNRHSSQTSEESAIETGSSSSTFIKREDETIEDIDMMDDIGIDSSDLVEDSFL

Vascular endothelial growth factor receptor 1 (Homo sapiens), sequence (P17948 whole entry): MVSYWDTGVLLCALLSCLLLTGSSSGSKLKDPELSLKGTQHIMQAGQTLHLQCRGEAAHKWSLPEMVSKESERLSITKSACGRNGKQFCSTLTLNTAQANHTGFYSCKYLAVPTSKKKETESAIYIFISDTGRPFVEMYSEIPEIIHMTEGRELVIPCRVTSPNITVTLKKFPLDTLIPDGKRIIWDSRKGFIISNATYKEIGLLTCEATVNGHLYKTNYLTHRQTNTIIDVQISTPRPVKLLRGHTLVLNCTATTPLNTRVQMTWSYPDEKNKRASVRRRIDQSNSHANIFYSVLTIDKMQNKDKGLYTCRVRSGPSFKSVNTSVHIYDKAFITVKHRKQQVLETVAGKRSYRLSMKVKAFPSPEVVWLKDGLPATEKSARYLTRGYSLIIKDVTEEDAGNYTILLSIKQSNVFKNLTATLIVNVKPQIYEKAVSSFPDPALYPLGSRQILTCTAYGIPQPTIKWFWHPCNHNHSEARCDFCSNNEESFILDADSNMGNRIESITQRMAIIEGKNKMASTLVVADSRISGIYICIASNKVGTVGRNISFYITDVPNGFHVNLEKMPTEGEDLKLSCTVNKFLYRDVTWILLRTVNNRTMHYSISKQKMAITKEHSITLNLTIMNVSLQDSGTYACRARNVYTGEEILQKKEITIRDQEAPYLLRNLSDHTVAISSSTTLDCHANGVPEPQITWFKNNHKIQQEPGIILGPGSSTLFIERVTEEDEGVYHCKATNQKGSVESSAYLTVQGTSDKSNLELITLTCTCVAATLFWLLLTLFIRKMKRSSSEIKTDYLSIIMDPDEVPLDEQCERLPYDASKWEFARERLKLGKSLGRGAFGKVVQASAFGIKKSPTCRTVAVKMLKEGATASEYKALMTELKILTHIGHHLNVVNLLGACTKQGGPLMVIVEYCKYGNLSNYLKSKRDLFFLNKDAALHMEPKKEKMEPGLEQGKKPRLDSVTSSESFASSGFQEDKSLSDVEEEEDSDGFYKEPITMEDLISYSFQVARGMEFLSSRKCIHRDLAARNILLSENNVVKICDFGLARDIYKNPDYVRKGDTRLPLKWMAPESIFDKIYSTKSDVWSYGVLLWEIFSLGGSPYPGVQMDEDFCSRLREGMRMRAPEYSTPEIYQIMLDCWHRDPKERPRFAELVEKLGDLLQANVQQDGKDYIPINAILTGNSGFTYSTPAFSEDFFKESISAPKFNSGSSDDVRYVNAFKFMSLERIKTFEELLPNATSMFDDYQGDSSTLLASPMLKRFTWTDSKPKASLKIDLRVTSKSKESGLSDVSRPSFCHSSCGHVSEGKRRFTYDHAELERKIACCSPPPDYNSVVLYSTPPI
Mitogen-activated protein kinase 12 (Homo sapiens), sequence (P53778 whole entry): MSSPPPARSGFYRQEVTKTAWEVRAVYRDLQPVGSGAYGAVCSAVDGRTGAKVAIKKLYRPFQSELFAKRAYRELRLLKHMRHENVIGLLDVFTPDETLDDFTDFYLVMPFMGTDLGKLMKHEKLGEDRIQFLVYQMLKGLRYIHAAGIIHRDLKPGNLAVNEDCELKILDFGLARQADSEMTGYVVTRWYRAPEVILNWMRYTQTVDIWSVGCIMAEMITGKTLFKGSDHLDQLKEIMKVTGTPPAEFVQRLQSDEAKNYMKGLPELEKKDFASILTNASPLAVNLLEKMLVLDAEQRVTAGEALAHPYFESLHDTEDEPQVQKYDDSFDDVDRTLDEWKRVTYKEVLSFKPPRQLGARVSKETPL
Tyrosine-protein kinase receptor UFO (Homo sapiens), sequence (P30530 whole entry): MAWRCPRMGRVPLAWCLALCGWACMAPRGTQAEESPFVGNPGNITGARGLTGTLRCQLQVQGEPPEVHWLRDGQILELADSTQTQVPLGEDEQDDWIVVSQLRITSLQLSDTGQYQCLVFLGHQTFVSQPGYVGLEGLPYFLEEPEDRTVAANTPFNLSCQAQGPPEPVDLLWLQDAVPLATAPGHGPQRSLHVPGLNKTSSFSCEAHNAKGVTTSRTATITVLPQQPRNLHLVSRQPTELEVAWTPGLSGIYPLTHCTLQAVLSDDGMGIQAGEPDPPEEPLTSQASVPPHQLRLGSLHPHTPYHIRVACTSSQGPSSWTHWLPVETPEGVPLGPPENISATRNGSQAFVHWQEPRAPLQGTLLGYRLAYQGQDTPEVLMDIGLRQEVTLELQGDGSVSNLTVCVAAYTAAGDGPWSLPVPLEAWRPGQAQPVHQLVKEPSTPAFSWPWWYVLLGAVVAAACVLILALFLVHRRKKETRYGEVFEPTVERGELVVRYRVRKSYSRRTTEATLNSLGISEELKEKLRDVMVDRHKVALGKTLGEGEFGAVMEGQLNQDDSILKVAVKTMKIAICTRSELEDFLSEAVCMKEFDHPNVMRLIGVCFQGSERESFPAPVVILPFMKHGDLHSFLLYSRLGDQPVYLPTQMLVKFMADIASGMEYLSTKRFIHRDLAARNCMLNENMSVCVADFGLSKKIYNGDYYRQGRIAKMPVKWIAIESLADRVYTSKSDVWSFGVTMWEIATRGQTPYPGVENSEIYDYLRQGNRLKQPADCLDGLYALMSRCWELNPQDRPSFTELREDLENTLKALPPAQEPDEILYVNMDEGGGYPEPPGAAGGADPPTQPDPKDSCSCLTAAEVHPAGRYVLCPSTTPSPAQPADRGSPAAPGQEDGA
Mitogen-activated protein kinase 8 (Homo sapiens), sequence (P45983 whole entry): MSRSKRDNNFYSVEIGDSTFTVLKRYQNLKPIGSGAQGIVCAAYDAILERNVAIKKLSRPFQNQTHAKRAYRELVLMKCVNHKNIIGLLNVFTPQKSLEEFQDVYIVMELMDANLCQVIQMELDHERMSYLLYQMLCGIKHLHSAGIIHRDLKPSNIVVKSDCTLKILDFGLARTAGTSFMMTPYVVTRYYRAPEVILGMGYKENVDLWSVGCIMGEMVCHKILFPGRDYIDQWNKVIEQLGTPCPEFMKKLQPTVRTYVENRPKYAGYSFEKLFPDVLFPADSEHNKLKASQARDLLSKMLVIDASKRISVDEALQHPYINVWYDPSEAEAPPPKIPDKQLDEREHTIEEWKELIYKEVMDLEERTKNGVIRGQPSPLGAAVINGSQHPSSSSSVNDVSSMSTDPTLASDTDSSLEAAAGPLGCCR
RAC-alpha serine/threonine-protein kinase (Homo sapiens), sequence (P31749 whole entry): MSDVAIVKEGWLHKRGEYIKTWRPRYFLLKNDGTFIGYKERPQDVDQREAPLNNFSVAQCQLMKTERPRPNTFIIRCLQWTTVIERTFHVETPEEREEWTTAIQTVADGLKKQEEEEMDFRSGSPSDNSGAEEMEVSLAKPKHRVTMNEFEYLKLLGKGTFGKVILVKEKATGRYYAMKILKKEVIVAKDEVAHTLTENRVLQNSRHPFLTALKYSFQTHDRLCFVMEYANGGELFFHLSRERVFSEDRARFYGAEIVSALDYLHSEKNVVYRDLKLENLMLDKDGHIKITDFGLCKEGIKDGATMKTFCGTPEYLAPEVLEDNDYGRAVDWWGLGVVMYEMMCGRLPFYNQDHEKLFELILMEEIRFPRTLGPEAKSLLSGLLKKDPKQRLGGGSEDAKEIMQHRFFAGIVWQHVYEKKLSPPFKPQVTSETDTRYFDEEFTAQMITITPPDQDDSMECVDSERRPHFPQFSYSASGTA

For the compound `CCCCCCCCCCCCCCC(=O)NC1CCN(C(=O)C2Sc3ccccc3N(CC)C2=O)CC1` (configuration not stated), the inhibition in [1] was -3%; in data set [2] it was 19%; in the data set with Saccharomyces cerevisiae, 14%; in data set [3], 52%; in [4] it was 33.8%; in the data set listed under Homo sapiens, 36%. The inhibition in data set [5] stood at 5.1%; in data set [6], 39%; in [7], 6.8%; in data set [8] it was 0%. Besides, the pIC50 with A2780 was 5.34. For the same compound, the Activity entry in the data set with Mus musculus was “Non-Toxic”.
